The supplement of paper PMC10307832

Tests used:
Test in all cases: relative viability (nuclei count vs DMSO), 5 days (fraction); higher = more cells survive
Metformin + Foretinib = compound: CN(C)C(=N)NC(=N)N [Metformin] + COc1cc2c(Oc3ccc(NC(=O)C4(C(=O)Nc5ccc(F)cc5)CC4)cc3F)ccnc2cc1OCCCN1CCOCC1 [Foretinib] (partner 0.25 µM)
Outline: (§1)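 Lung cancer cell lines were pin-tool dosed in 1536-well plates on the day after seeding, with either a lone drug or a fixed anchor-drug dose plus five library-drug doses (not always all listed) in √10 steps. Nuclei were counted on 4× images after 5 days. Relative viability is the ratio of treated-well to vehicle-well nuclei counts, with each value a median of duplicate plates.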

Metformin + Lapatinib = compound: CN(C)C(=N)NC(=N)N [Metformin] + CS(=O)(=O)CCNCc1ccc(-c2ccc3ncnc(Nc4ccc(OCc5cccc(F)c5)c(Cl)c4)c3c2)o1 [Lapatinib] (partner 2 µM)
Outline: as §1

Apatinib + OSI-027 = compound: N#CC1(c2ccc(NC(=O)c3cccnc3NCc3ccncc3)cc2)CCCC1 [Apatinib] + COc1cccc2cc(-c3nc([C@H]4CC[C@H](C(=O)O)CC4)n4ncnc(N)c34)[nH]c12 [OSI-027] (partner 0.5 µM)
Outline: as §1

Apatinib + AZD7762 = compound: N#CC1(c2ccc(NC(=O)c3cccnc3NCc3ccncc3)cc2)CCCC1 [Apatinib] + NC(=O)Nc1cc(-c2cccc(F)c2)sc1C(=O)N[C@H]1CCCNC1 [AZD7762] (partner 0.2 µM)
Outline: as §1

Cell Line | relative viability (Metformin + Foretinib; first compound 10 µM) | relative viability (Metformin + Foretinib; first compound 31.62 µM) | relative viability (Metformin + Foretinib; first compound 100 µM) | relative viability (Metformin + Foretinib; first compound 316.23 µM) | relative viability (Metformin + Foretinib; first compound 1000 µM) | relative viability (Metformin + Lapatinib; first compound 10 µM) | relative viability (Metformin + Lapatinib; first compound 31.62 µM) | relative viability (Metformin + Lapatinib; first compound 100 µM) | relative viability (Metformin + Lapatinib; first compound 316.23 µM) | relative viability (Metformin + Lapatinib; first compound 1000 µM) | relative viability (Apatinib + OSI-027; first compound 0.08 µM) | relative viability (Apatinib + OSI-027; first compound 0.253 µM) | relative viability (Apatinib + OSI-027; first compound 0.8 µM) | relative viability (Apatinib + OSI-027; first compound 2.53 µM) | relative viability (Apatinib + OSI-027; first compound 8 µM) | relative viability (Apatinib + AZD7762; first compound 0.08 µM) | relative viability (Apatinib + AZD7762; first compound 0.253 µM) | relative viability (Apatinib + AZD7762; first compound 0.8 µM) | relative viability (Apatinib + AZD7762; first compound 2.53 µM) | relative viability (Apatinib + AZD7762; first compound 8 µM)
LCLC-97TM1 | 0.912 | 0.808 | 0.875 | 0.895 | 1.02 | 0.888 | 1.36 | 0.888 | 1.08 | 1.53 | 0.516 | 0.427 | 0.456 | 0.395 | 0.329 | 0.233 | 0.263 | 0.204 | 0.19 | 0.311
NCI-H1993 | 0.964 | 1.02 | 0.912 | 0.836 | 1.06 | 0.761 | 0.823 | 0.814 | 0.741 | 0.804 | 0.627 | 0.596 | 0.549 | 0.49 | 0.494 | 0.869 | 0.7 | 0.648 | 0.576 | 0.638
PC-3 [JPC-3] | 0.808 | 0.945 | 0.996 | 0.93 | 0.946 | 0.453 | 0.46 | 0.441 | 0.435 | 0.447 | 0.747 | 0.639 | 0.627 | 0.517 | 0.571 | – | 0.745 | 0.672 | 0.63 | 0.688
NCI-H441 | – | 0.879 | 0.799 | 0.788 | 0.77 | – | – | – | – | – | 0.609 | 0.625 | 0.541 | 0.436 | 0.339 | 1 | 1.16 | 1.05 | 1.08 | 1.06
NCI-H322M | 1.14 | 1.03 | 1.05 | 1.1 | 0.935 | 0.589 | 0.598 | 0.688 | 0.614 | 0.585 | 0.551 | 0.533 | 0.52 | 0.518 | 0.46 | 0.553 | 0.58 | 0.549 | 0.471 | 0.471
NCI-H1651 | 1.01 | 0.765 | 1.03 | 0.802 | 1.02 | 0.877 | 0.81 | 0.822 | 0.749 | 0.865 | 0.782 | 0.867 | 0.647 | 0.683 | 0.599 | 0.325 | 0.514 | 0.44 | 0.322 | 0.324
EKVX | 0.456 | 1.03 | 0.886 | – | 0.303 | 0.185 | 0.16 | 0.176 | 0.222 | 0.196 | 0.684 | 0.688 | 0.654 | 0.639 | 0.558 | 0.641 | 0.572 | 0.656 | 0.593 | 0.574
CAL-12T | 1.25 | 1.32 | 1.04 | 1.04 | 0.76 | 0.645 | 0.801 | 0.794 | 0.618 | 0.736 | 0.652 | 0.589 | 0.52 | 0.366 | 0.272 | 0.618 | 0.53 | 0.603 | 0.51 | 0.468
